Data from patent US8519154B2, “Method for treatment of bronchial asthma” (Council of Scientific & Industrial Research, priority 2011, dated 2013).

Experiments:
mice [1] = test: Pentobarbitone induced sleeping time; type: in vivo; conditions: pentobarbitone 50 mg/kg (i.p) alone
Procedure: Compound I was administered to mice perorally. […] were administered with sodium pentobarbitone (50 mg/kg, ip). Sleeping time (No righting reflex) (in min) was determined for the control (untreated) and D8 treated animals [Montilla, M P., Cabo, J., Navarro, M C., Risco, S., Jimmenez R S., Aneires, J., The protective and curative action of Withania frutescens leaf extract against CCl4-induced hepatotoxicity. Phytother. Res. 4 (1990) 212-215].

PDE-4 = test: Phosphodiesterase 4 assay, [3H]cAMP SPA enzyme assay, enzyme preparation from rat heart; type: biochemical
Procedure: For phosphodiesterase (PDE-4) assay, enzyme preparations were performed from rat heart (Ko et al 2004, Biochemical Pharmacology 68:2087-2094). Heart was excised from anesthetized rat and transfer into normal saline solution. Heart weighing 687 mg was taken and homogenized in 2.5 volumes of homogenization buffer containing 20 mM Tris-Cl, 50 mM NaCl, 2 mM EDTA, 0.1 mM PMSF, […], protease inhibitors 1 μg/μl. The homogenate was centrifuged at 500×g for 5 minute at 4° C. Then sup was taken for further centrifuged at 40,000×g for 30 minute (ultra centrifugation). After centrifugation supernatant was collected for phosphodiesterase assay. Protein concentration was estimated and for each assay, 2.5 μg protein (PDE enzyme preparation) was used. All compounds tested for PDE 4 activity were dissolved in DMSO.
Phosphodiesterase 4 assay: Phosphodiesterase 4 assay was conducted with [^3H] cAMP SPA enzyme assay (GE Amersham, UK) using 2.5 μg enzyme preparation for each well. Into each well 60 μl water, 10 μl assay buffer supplied with the kit, 10 μl compound (inhibitor), 10 μl PDE enzyme or homogenizing buffer (blank) and […] radiolabel led cAMP ([^3H]cAMP, GE Amersham, UK) were added. To check activity of the enzyme without inhibitor (compound) 10 μl DMSO was added in place of inhibitor to a separate well. The reaction mixtures were incubated for […] at 30° C. The reaction was stopped by adding 50 μl SPA bead supplied with the kit. It was then mixed well and allowed to stand at room temperature for 20 min. Breakdown of cAMP in each tube was monitored by β counter. The reading in each tube was obtained in counts per minute (CPM). The reading of the blank tube (without enzyme) was subtracted from each tube to normalize the counts. The enzyme activity was calculated by considering the CPM reading without any inhibitor (compound) as 100.

mice [2] = test: Electric shock induced convulsions; type: in vivo, Swiss mice
Procedure: Convulsion were induced by a single electroshock (50 Hz in frequency, 0.5 ms pulse width, 50 mA current for 0.3 s) applied through bi-polar electrodes attached to the ear pinna on both side using a pulse generator (Ugo Basile, Italy). The convulsive activity (determined by loss of tonic extensor seizure) was recorded in control (untreated) and Compound I were treated (before electro-shock application) animals [Achliya, G S, Wadodkar, S G, Darle, A K., Evaluation of CNS activity of Bramhi Ghrita. Indian J. Pharmacol. 37 (2005) 33-36].
Anti-convulsant activity was measured by electric shock induced seizure. Five Swiss mice were used for one dose of drug. Convulsion were induced by a single electroshock (50 Hz in frequency, 0.5 ms pulse width, 50 mA current for 0.3 s) applied through bi-polar electrodes attached to the ear pinna on both side by a pulse generator (Ugo Basile, Italy) Test drug were administered orally 60 min before electroshock application, and convulsive activity was determined by loss of tonic extensor seizure.

## CCCC(C)C1(CC)C(=O)NC(=O)NC1=O (centres unmarked) [Pentobarbitone]
Mice [1]
  Sleeping Time (Minutes ± SEM): 75.6 ± 9.4 min

## COc1cc(COC(C)=O)cc2c1[nH]c1ccccc12 [V]
PDE-4; 0.1 μg/ml
  % of Inhibition: 0%
PDE-4; 1 μg/ml
  % of Inhibition: 11.80%
PDE-4; 10 μg/ml
  % of Inhibition: 44.2%

## CCC1(c2ccccc2)C(=O)NC(=O)NC1=O [Phenobarbitone, reference compound]
Mice [2]; 30 mg/kg p.o.
  Convulsions Clonic: 0/5
  Convulsions Tonic: 0/5
  Mortality: 0/5
Mice [2]; positive control
  anti-convulsant activity: significant anti-convulsant activity
